We go through 21 compounds from patent US7829500B2, “Plant-activating agent” (Kao Corporation, priority 2000, dated 2010).

The assay concerns Chlorella cells. The experiment in a line: Test of reproductive ability using chlorella cells. In kind it is cell-based. Conditions: relative number of chlorella cells after 14 days, non-treated area = 100. As for the experimental part:
Chlorella cells which were green cells of a […] were cultured with vibration in an inorganic salt medium. […] The concentration of the cells was set to 1.00×10^5 (cells per ml) at the start of the test. […] As the inorganic salt medium, a Linsmaier-Skoog (LS) medium was used. Three media were used as the treated areas and the non-treated areas every the plant-activating agent or the plant-activating composition. The average thereof was compared with that in the non-treated areas.

The mark [1] stands for this setting: Table 1, LS medium, concentration (ppm) as in table.

Consider `CC(O)C(=O)O` (stereo not drawn) [Comparative product 1-1, Lactic acid, reference compound], for which the reproductive ability under setting [1] was 99.
Compound `CC(=O)O` [Comparative product A1-1, Acetic acid, reference compound] yielded a reproductive ability (Table A1) of 90.
For the setting “Table A1”, `CCC(=O)O` [Comparative product A1-3, Propionic acid, reference compound] registered a reproductive ability of 94.
Still for that read-out and setting: to `CC(O)C(=O)O` (stereo not drawn) [Comparative product A1-4, Lactic acid, reference compound] belongs 93.
Compound `OCC(O)CO` [Comparative product B1-1, Glycerol, reference compound] registered a reproductive ability (Table B1) of 98.
`CCCCCCCCCCCCCC(=O)O` [Inventive product A1-1, Myristic acid (LUNAC MY-98)] showed a reproductive ability (Table A1) of 127.
Still for that read-out and setting: to `CCCCCCCC/C=C\CCCCCCCC(=O)O` [Inventive product A1-5, Oleic acid] belongs 148; to `CCCCCCCCCCCCCCCCCCCCCC(=O)O` [Inventive product A1-6, Behenic acid (LUNAC BA)], 150.
`CCCCCCCCCCCCCCCCCCCCCCCCCCCCCC(=O)O` [Inventive product A1-7, Melissic acid] registered a reproductive ability (Table A1) of 138.
`CCCCCCCCCCCCCCCCCCOCC(O)CO` (stereo not drawn) [Inventive product B1-4, Batyl alcohol] had a reproductive ability (Table B1) of 130.
Consider `CCCCCCCCCCCCCCCCCCOC(=O)C(O)CO` (stereo not drawn) [Inventive product B1-6, Glyceric acid stearyl ester], for which the reproductive ability (Table B1) is 122.
Regarding `CCCCCCCCCCCCCCCCNC(=O)C(O)CO` (stereo not drawn) [Inventive product B1-7, Glyceric acid cetyl amide], the reproductive ability (Table B1) amounted to 120.
For the compound `O=C1OCC(CO)O1` (stereo not drawn) [Inventive product B1-9, Glycerol carbonate], the reproductive ability (Table B1) stood at 126.
Under setting [1], “Citric acid C12 monoamide [Inventive product 1-8]” returned a reproductive ability of 128.
“Citric acid C14 monoamide [Inventive product 1-6]” gave a reproductive ability under setting [1] of 136.
The compound “Citric acid C18 diester [Inventive product 1-7]” registered a reproductive ability under setting [1] of 138.
Same read-out and setting: to “Citric acid C18 monoamide [Inventive product 1-5]” belongs 139; to “Citric acid C18 monoester [Inventive product 1-1]”, 142; to “Citric acid C18 monoester potassium salt [Inventive product 1-3]”, 138.
In turn, “Hexaglycerol ester of stearic acid [Inventive product B1-8]” yielded a reproductive ability (Table B1) of 123.
Same read-out and setting: as for “Stearic acid monoglyceride [Inventive product B1-3]”, the figure is 132.
